Patent publication US20030109519A1, “Use of selective potassium channel openers” (priority 2001, published 2003)

Assays:
perfused pancreas = test: Perfused pancreas from treated diabetic Zucker rats; format: in vivo, rat
Protocol: (§1) A study was performed in a colony of diabetic Zucker rats housed in Vancouver, Canada. This is a model of hyperinsulinemia and impaired glucose tolerance/mild type 2 diabetes. The aim was to investigate whether treatment with the test compound 6-chloro-3-(1-methylcylodopropyl)amino-4H-thieno[3,2-e]-1,2,4-thiadiazine 1,1-dioxide could lead to a reduction in hyperinsulinemia and an improvement in insulin secretory responsiveness to glucose in the perfused pancreas. Male diabetic Zucker rats were dosed for 3 weeks with either 1.5 mg/kg 6-chloro-3-(1-methylcylodopropyl)amino-4H-thieno[3,2-e]-1,2,4-thiadiazine 1,1-dioxide bid (n=8) or vehicle (n=16). Oral glucose tolerance was assessed in the animals the day after the last dose was given.

diabetic Zucker rats = test: Oral glucose tolerance test after 3 weeks dosing in diabetic Zucker rats; format: in vivo, rat; conditions: male diabetic Zucker rats, 1.5 mg/kg bid for 3 weeks, vs vehicle
Protocol: as §1

[1] = biological target: KATP-channels on pancreatic beta-cells (Homo sapiens, UniProt Q09428); conditions: by activation of KATP-channels on pancreatic beta-cells; Pirotte et al. 1993, 1994; cited from earlier work
Chain of KATP-channels on pancreatic beta-cells (Q09428 whole entry): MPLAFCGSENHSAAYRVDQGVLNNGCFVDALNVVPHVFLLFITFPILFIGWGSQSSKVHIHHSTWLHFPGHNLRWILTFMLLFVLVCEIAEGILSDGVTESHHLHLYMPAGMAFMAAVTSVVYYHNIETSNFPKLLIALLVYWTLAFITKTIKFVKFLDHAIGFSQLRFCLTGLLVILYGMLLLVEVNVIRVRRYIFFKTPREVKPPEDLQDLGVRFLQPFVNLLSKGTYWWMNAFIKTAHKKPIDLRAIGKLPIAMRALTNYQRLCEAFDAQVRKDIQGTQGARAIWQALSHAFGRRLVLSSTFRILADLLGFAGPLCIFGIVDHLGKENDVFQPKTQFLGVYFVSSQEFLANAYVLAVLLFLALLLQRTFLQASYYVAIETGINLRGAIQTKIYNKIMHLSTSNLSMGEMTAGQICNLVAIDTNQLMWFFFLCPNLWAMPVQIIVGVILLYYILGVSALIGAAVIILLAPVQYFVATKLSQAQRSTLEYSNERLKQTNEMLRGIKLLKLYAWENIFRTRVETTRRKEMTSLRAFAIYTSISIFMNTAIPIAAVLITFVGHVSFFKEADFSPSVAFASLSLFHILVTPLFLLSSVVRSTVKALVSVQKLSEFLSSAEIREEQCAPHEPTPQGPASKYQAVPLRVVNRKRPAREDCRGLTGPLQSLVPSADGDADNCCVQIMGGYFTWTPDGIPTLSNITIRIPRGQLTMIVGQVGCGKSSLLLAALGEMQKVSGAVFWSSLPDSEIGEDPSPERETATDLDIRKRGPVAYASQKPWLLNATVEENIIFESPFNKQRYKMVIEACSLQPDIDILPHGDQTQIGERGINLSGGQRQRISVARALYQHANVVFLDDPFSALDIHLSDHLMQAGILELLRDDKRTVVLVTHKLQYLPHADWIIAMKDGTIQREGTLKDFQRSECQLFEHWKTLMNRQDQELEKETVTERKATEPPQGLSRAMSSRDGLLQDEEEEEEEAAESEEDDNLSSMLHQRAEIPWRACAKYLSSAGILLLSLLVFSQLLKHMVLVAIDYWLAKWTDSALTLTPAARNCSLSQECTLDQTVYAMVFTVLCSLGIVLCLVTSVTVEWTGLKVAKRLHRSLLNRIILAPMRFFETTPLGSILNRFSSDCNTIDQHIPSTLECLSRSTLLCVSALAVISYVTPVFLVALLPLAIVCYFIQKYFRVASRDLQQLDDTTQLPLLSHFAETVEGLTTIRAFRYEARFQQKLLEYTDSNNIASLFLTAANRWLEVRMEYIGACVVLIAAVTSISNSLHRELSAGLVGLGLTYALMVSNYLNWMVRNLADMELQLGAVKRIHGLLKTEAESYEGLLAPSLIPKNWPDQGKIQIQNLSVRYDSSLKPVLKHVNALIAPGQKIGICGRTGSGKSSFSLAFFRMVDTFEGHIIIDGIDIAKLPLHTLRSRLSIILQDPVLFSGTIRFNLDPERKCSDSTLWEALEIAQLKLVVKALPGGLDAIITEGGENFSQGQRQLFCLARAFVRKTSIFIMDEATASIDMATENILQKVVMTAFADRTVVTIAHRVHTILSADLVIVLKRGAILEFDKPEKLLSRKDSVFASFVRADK
Chain of KATP-channels on pancreatic beta-cells (Q14654 whole entry partner): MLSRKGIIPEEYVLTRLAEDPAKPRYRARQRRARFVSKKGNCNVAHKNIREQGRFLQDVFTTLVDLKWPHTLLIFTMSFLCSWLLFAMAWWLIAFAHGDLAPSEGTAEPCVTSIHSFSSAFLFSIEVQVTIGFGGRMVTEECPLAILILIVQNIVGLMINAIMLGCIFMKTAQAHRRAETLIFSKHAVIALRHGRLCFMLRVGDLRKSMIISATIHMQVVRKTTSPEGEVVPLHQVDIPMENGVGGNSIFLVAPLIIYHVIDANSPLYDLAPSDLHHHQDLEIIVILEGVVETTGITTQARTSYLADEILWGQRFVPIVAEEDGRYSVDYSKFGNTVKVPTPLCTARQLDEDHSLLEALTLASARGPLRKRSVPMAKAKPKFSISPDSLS

Compound | hyperinsulinemia in perfused pancreas (perfused pancreas; pancreata from rats treated 1.5 mg/kg bid for 3 weeks, evaluated two days after OGTT) | insulin secretory responsiveness to glucose in perfused pancreas (perfused pancreas; pancreata from treated rats, two days after OGTT, data expressed relative to baseline) | oral glucose tolerance (diabetic Zucker rats; assessed the day after the last dose) | hyperinsulinemia (associated with the oral glucose tolerance test) (diabetic Zucker rats; day after the last dose) | insulin release [1]
CC1(NC2=NS(=O)(=O)c3sc(Cl)cc3N2)CC1 [6-chloro-3-(1-methylcylodopropyl)amino-4H-thieno[3,2-e]-1,2,4-thiadiazine 1,1-dioxide] | reduced hyperinsulinemia | improved insulin secretory responsiveness to glucose | significantly improved | significant reduction in hyperinsulinemia | –
CC1=Nc2ccc(Cl)cc2S(=O)(=O)N1 [diazoxide, 7-chloro-3-methyl-2H-1,2,4-benzothiadiazine 1,1-dioxide] | – | – | – | – | inhibit insulin release
